According to US20220228126A1, “USE OF PCBP1 TO GENERATE INDUCED PLURIPOTENT STEM CELLS WHILE INHIBITING ONCOGENESIS” (priority 2019, published 2022):

Assays:
BCL-2 = experiment: qRT-PCR quantification of BCL-2 expression in cancer stem cells; assay type: cell-based, human; settings: 10 μM niclosamide, DMSO base-line; U87-MG (CSC), DU-145 (CSC), MCF-7 (CSC)
Method: (§1) FIG. 28A-B: qRT-PCR quantification of c-Myc and BCL-2 expression in U87-MG(CSC) cells treated with DMSA or 10 μM niclosamide. For calculations: DMSO served as base-line in FIG. 28A. Mock-transfection served as base-line in FIG. 28B. Dotted line marks 1.5 fold change in y-axis, considered the benchmark for statistical significance.
as §1, with “29A-B:” for “28A-B:”, “DU-145 (CSC)” for “U87-MG(CSC)”, “29A.” for “28A.”, “29B.” for “28B.”
as §1, with “30A-B.” for “28A-B:”, “DU-145 (CSC)” for “U87-MG(CSC)”, “30A.” for “28A.”, “30B.” for “28B.”
(§2) U87-MG (CSC) were used to validate the NF-kB pathway. Cells were lysed using RIPA lysis buffer and 35 mcg cell lysate protein (determined by BCA assay) was loaded per well. […] The expression of c-Myc in the cells as measured by Western Blot was normalized. […] RNA levels were measured by qPRC using gene-specific Taqman probes for c-Myc and BCL-2. […]

c-Myc = experiment: qRT-PCR quantification of c-Myc expression in cancer stem cells; assay type: cell-based, human; settings: 10 μM niclosamide, DMSO base-line; U87-MG (CSC), DU-145 (CSC), MCF-7 (CSC)
Method: as §1
as §1, with “29A-B:” for “28A-B:”, “DU-145 (CSC)” for “U87-MG(CSC)”, “29A.” for “28A.”, “29B.” for “28B.”
as §1, with “30A-B.” for “28A-B:”, “DU-145 (CSC)” for “U87-MG(CSC)”, “30A.” for “28A.”, “30B.” for “28B.”
as §2

[1] = system: reactive oxygen species (ROS); settings: mechanism shown in FIG. 25; cited from earlier work

Q: What does the source list for `O=C(Nc1ccc([N+](=O)[O-])cc1Cl)c1cc(Cl)ccc1O` [niclosamide]?
A: BCL-2 expression (BCL-2): significantly down-regulated; c-Myc expression (c-Myc): significantly down-regulated; intracellular ROS content [1]: elevates
